Tests used:
Assay type in all cases: in vivo
Amaranthus retroflexus [1] = assay: Example B1 herbicidal action, post-emergence, seed trays in climatic chamber, damage score 0-10; details: 1000 g/ha, evaluated after 9 days, 10=total damage to plant, 0=no damage to plant
Procedure: (§1) Seeds of a variety of test species were sown in sterilized standard soil in seed trays each having 96 cells. After cultivation for 8 to 9 days cultivation (post-emergence) under controlled conditions in a climatic chamber (cultivation at 23/17° C., day/night; 13 hours light; 50-60% humidity), the plants were treated with an aqueous spray solution of 1000 mg/l of the active ingredient dissolved in 10% DMSO (dimethyl sulfoxide, CAS RN 67-68-5) as a solvent, equivalent to 1000 g/ha. The plants were grown in the climatic chamber after application at (24/19° C., day/night; 13 hours light; 50-60% humidity) and watered twice daily. After 9 days until the test was evaluated (10=total damage to plant, 0=no damage to plant)

Nasturtium officinale = assay: as above; details: 1000 g/ha, evaluated after 9 days, 10=total damage to plant, 0=no damage to plant
Procedure: as §1

Solanum nigrum [2] = assay: as above; details: 1000 g/ha, evaluated after 9 days, 10=total damage to plant, 0=no damage to plant
Procedure: as §1

Stellaria media = assay: as above; details: 1000 g/ha, evaluated after 9 days, 10=total damage to plant, 0=no damage to plant
Procedure: as §1

test plants [3] = assay: Example B2 herbicidal action, post-emergence, pots in glasshouse, damage score 0-10 (10=total damage to plant; 0=no damage to plant); details: Example B2 protocol, after 13 days, result in words
Procedure: Seeds of a variety of test species were sown in standard soil in pots. After 8 days cultivation (post-emergence) under controlled conditions in a glasshouse (at 24/16° C., day/night; 14 hours light; 65% humidity), the plants were sprayed with an aqueous spray solution derived from the formulation of the technical active ingredient in acetone/water (50:50) solution containing 0.5% Tween 20 (polyoxyethelyene sorbitan monolaurate, CAS RN 9005-64-5). The test plants were then grown in a glasshouse under controlled conditions in a glasshouse (at 24/16° C., day/night; 14 hours light; 65% humidity) and watered twice daily. After 13 days, the test was evaluated (10=total damage to plant; 0=no damage to plant).

Chenopodium album = assay: Example B3 herbicidal action, post-emergence, small pots in glasshouse, damage score 0-10; details: 1000 g/ha, evaluated after 13 days, 10=total damage to plant, 0=no damage to plant
Procedure: (§2) Seeds of a variety of test species were sown in sterilized compost in small pots. After cultivation for seven days (post-emergence) in controlled conditions in the glasshouse (at 24/16° C., day/night; 14 hours light; 65% humidity) the plants were sprayed with 1 mg of the active ingredient, formulated in 2.5 ml acetone/water (50:50) solution, which is equivalent to 1000 g/ha. Once the foliage was dry, the pots were kept in the glasshouse (at 24/16° C., day/night; 14 hours light; 65% humidity), and were watered twice daily. After 13 days the test was evaluated (10=total damage to plant, 0=no damage to plant).

Alopecurus myosuroides = assay: as above; details: 1000 g/ha, evaluated after 13 days, 10=total damage to plant, 0=no damage to plant
Procedure: as §2

test plants [4] = assay: Example B1 herbicidal action, post-emergence, all test species together; details: Example B1 protocol, 1000 g/ha, after 9 days, result in words
Procedure: as §1

Amaranthus retroflexus [5] = assay: Example B2 herbicidal action, post-emergence, pots in glasshouse, damage score 0-10; details: application post-emergence, rate 1000 g/ha, evaluated after 13 days
How it was run: (§3)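 Pot-grown plants were sprayed post-emergence at 8 days with active ingredient in aqueous spray derived from acetone/water (50:50) containing 0.5% Tween 20. Glasshouse conditions were 24/16° C day/night, 14 h light and 65% humidity, with watering twice daily. Damage was scored 13 days after spraying.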

Ipomea hederaceae = assay: as above; details: application post-emergence, rate 1000 g/ha, evaluated after 13 days
How it was run: as §3

Solanum nigrum [6] = assay: as above; details: application post-emergence, rate 1000 g/ha, evaluated after 13 days
How it was run: as §3

Setaria faberi = assay: as above; details: application post-emergence, rate 1000 g/ha, evaluated after 13 days
How it was run: as §3

Echinochloa crus-galli = assay: as above; details: application post-emergence, rate 1000 g/ha, evaluated after 13 days
How it was run: as §3

Compound | damage to plant, AMARE (Amaranthus retroflexus [1]) | damage to plant, NAAOF (Nasturtium officinale) | damage to plant, SOLNI (Solanum nigrum [2]) | damage to plant, STEME (Stellaria media) | also measured
CN1c2nccnc2C(O)=C(c2ccc(Cl)cc2Cl)S1(=O)=O [Compound D1] | 0 | 7 | 0 | 8 | 
CC(C)(C)C(=O)OC1=C(c2c(F)ccc(F)c2Cl)S(=O)(=O)Nc2nccnc21 [Compound B3, 2,2-dimethyl-propionic acid-3-(2-chloro-3,6-difluoro-phenyl)-2,2-dioxo-1,2-dihydro-2-λ-6-thia-1,5,8-triaza-naphthalen-4-yl ester] | 0 | 0 | 2 | 0 | 
COC1=C(c2ccc(Cl)cc2Cl)S(=O)(=O)N(C)c2nccnc21 [Compound C3, 3-(2,4-dichloro-phenyl)-4-methoxy-1-methyl-1H-2-thia-1,5,8-triazanaphthalen-2,2-dioxide] | 1 | 2 | 3 | 2 | 
CN1c2nccnc2C(OC(=O)C(C)(C)C)=C(c2ccc(Cl)c(Cl)c2)S1(=O)=O [Compound C8] | 2 | 0 | 7 | 0 | 
CN1c2nccnc2C(O)=C(c2c(F)ccc(F)c2Cl)S1(=O)=O [Compound D2] | 7 | 7 | 7 | 7 | 
CCN1c2nccnc2C(OC(=O)C(C)C)=C(c2ccc(Cl)cc2Cl)S1(=O)=O [Compound C6] | 0 | 8 | 7 | 8 | 
CN1c2nccnc2C(OC(=O)C(C)(C)C)=C(c2ccc(Cl)cc2Cl)S1(=O)=O [Compound C2] | 3 | 4 | 0 | 6 | 
CN1c2nccnc2C(OC(=O)C(C)(C)C)=C(c2cc3ccccc3nc2Cl)S1(=O)=O [Compound C41] | 0 | 8 | 0 | 4 | 
CC(C)C(=O)OC1=C(c2c(F)ccc(F)c2Cl)S(=O)(=O)N(C)c2nccnc21 [Compound C9] | 7 | 6 | 4 | 6 | 
CC(C)(C)C(=O)OC1=C(c2ccc(Cl)cc2Cl)S(=O)(=O)Nc2nccnc21 [Compound B1] | 0 | 0 | 2 | 0 | 
CN1c2nccnc2C(OC(=O)C2CC2)=C(c2ccc(Cl)cc2Cl)S1(=O)=O [Compound C1] | 0 | 4 | 3 | 6 | 
CCN1c2nccnc2C(OC(=O)C(C)(C)C)=C(c2cccc(C(F)(F)F)c2)S1(=O)=O [Compound C14] |  |  |  |  | damage to the test plants (test plants [3]): little or no damage
COC1=C(c2cc3ccccc3nc2Cl)S(=O)(=O)N(C)c2nccnc21 [Compound C40] | 0 | 0 | 0 | 1 | 
C#CCN1c2nccnc2C(O)=C(c2ccccc2[N+](=O)[O-])S1(=O)=O [Compound D40, 3-(2-nitro-phenyl)-2,2-dioxo-1-prop-2-ynyl-1,2-dihydro-2-λ-6-thia-1,5,8-triaza-naphthalen-4-ol] |  |  |  |  | damage to the test plants (test plants [3]): little or no damage
CC(C)(C)C(=O)OC1=C(c2ccc(Cl)cc2Cl)S(=O)(=O)N(CC(F)F)c2nccnc21 [Compound C12, 2,2-dimethyl-propionic acid-3-(2,4-dichloro-phenyl)-1-(2,2-difluoroethyl)-2,2-dioxo-1,2-dihydro-2-λ-6-thia-1,5,8-triaza-naphthalen-4-yl ester] |  |  |  |  | damage to plant, CHEAL (Chenopodium album): 9; damage to plant, ALOMY (Alopecurus myosuroides): 6
CN1c2nccnc2C(OC(=O)C(C)(C)C)=C(c2c(F)ccc(F)c2Cl)S1(=O)=O [Compound C4] | 7 | 6 | 5 | 8 | 
CCOC(=O)c1ccc(C(F)(F)F)nc1C1=C(O)c2nccnc2N(CCC(F)F)S1(=O)=O [Compound D58, 2-[1-(3,3-difluoro-propyl)-4-hydroxy-2,2-dioxo-1,2-dihydro-2-λ-6-thia-1,5,8-triaza-naphthalen-3-yl]-6-trifluoromethyl-nicotinic acid ethyl ester] |  |  |  |  | damage to the test plants (test plants [3]): little or no damage
CC(C)(C)C(=O)OC1=C(c2ccccc2[N+](=O)[O-])S(=O)(=O)N(CC(F)F)c2nccnc21 [Compound C66] |  |  |  |  | damage to the test plants (test plants [3]): little or no damage
CC(C)(C)C(=O)OC1=C(c2ccc(Cl)c(Cl)c2)S(=O)(=O)Nc2nccnc21 [Compound B4] |  |  |  |  | damage to the test plants (test plants [4]): little or no damage
CCN1c2nccnc2C(OC(=O)C(C)(C)C)=C(c2ccc(Cl)c(Cl)c2)S1(=O)=O [Compound C10] |  |  |  |  | damage to the test plants (test plants [3]): little or no damage
CCN1c2nccnc2C(OC(=O)C(C)(C)C)=C(c2c(F)ccc(F)c2Cl)S1(=O)=O [Compound C7] | 3 | 8 | 7 | 8 | 
CC(C)C(=O)OC1=C(c2ccc(Cl)cc2Cl)S(=O)(=O)Nc2nccnc21 [Compound B2] |  |  |  |  | damage to the test plants (test plants [4]): little or no damage
CC(C)(C)C(=O)OC1=C(c2cccc(Cl)c2Cl)S(=O)(=O)N(CC(F)F)c2nccnc21 [Compound C100] |  |  |  |  | AMARE damage score (10=total damage to plant; 0=no damage to plant) (Amaranthus retroflexus [5]): 4; IPOHE damage score (10=total damage to plant; 0=no damage to plant) (Ipomea hederaceae): 6; SOLNI damage score (10=total damage to plant; 0=no damage to plant) (Solanum nigrum [6]): 9; SETFA damage score (10=total damage to plant; 0=no damage to plant) (Setaria faberi): 2; ECHCG damage score (10=total damage to plant; 0=no damage to plant) (Echinochloa crus-galli): 2
CCN1c2nccnc2C(OC(=O)C(C)C)=C(c2cc(C(F)(F)F)ccc2Br)S1(=O)=O [Compound C70] |  |  |  |  | AMARE damage score (10=total damage to plant; 0=no damage to plant) (Amaranthus retroflexus [5]): 7; IPOHE damage score (10=total damage to plant; 0=no damage to plant) (Ipomea hederaceae): 10; SOLNI damage score (10=total damage to plant; 0=no damage to plant) (Solanum nigrum [6]): 8; SETFA damage score (10=total damage to plant; 0=no damage to plant) (Setaria faberi): 1; ECHCG damage score (10=total damage to plant; 0=no damage to plant) (Echinochloa crus-galli): 7
CCSC(=O)OC1=C(c2cc(Cl)ccc2C(F)(F)F)S(=O)(=O)N(CC)c2nccnc21 [Compound C109] |  |  |  |  | AMARE damage score (10=total damage to plant; 0=no damage to plant) (Amaranthus retroflexus [5]): 5; IPOHE damage score (10=total damage to plant; 0=no damage to plant) (Ipomea hederaceae): 9; SOLNI damage score (10=total damage to plant; 0=no damage to plant) (Solanum nigrum [6]): 8; SETFA damage score (10=total damage to plant; 0=no damage to plant) (Setaria faberi): 2; ECHCG damage score (10=total damage to plant; 0=no damage to plant) (Echinochloa crus-galli): 5
CCN1c2nccnc2C(OC(=O)C(C)(C)C)=C(c2ccccc2C(F)(F)F)S1(=O)=O [Compound C64] |  |  |  |  | AMARE damage score (10=total damage to plant; 0=no damage to plant) (Amaranthus retroflexus [5]): 4; IPOHE damage score (10=total damage to plant; 0=no damage to plant) (Ipomea hederaceae): 6; SOLNI damage score (10=total damage to plant; 0=no damage to plant) (Solanum nigrum [6]): 5; SETFA damage score (10=total damage to plant; 0=no damage to plant) (Setaria faberi): 3; ECHCG damage score (10=total damage to plant; 0=no damage to plant) (Echinochloa crus-galli): 5
CSC(=O)OC1=C(c2ccc(Br)cc2C(F)(F)F)S(=O)(=O)N(CC(F)F)c2nccnc21 [Compound C133] |  |  |  |  | AMARE damage score (10=total damage to plant; 0=no damage to plant) (Amaranthus retroflexus [5]): 10; IPOHE damage score (10=total damage to plant; 0=no damage to plant) (Ipomea hederaceae): 8; SOLNI damage score (10=total damage to plant; 0=no damage to plant) (Solanum nigrum [6]): 10; SETFA damage score (10=total damage to plant; 0=no damage to plant) (Setaria faberi): 7; ECHCG damage score (10=total damage to plant; 0=no damage to plant) (Echinochloa crus-galli): 8
CCN1c2nccnc2C(OC(=O)C(C)(C)C)=C(c2ccc(Cl)cc2Cl)S1(=O)=O [Compound C5] | 5 | 8 | 1 | 7 | 

Reference: patent US8133849B2, “Herbicidal compounds” (Syngenta Limited, priority 2007, dated 2012)
